Measured values from PMC5978884, “Dissection of the antimicrobial and hemolytic activity of Cap18: Generation of Cap18 derivatives with enhanced specificity” (PLoS ONE, 2018).
Where no end group is shown, it is not given here.

How the values were obtained:
[1] = test system: Listeria monocytogenes N22-2; format: cell-based
Protocol: (§1) All strains were grown in Mueller-Hinton-II medium, except L. monocytogenes which was grown in BHI medium and L. lactis which was grown in MRS medium. Incubation took place aerobically at 37°C, except for Y. ruckeri and A. salmonicida, which were grown aerobically at RT (20 °C), and L. lactis grown aerobically at 30°C. All plates were incubated for 16–21 hours.
(§2) The minimum inhibitory concentrations (MICs) of the AMPs were measured in 96-well microtiter plates according the Clinical and Laboratory Standards Institute (CLSI, formerly National Committee for Clinical Laboratory Standards [NCCLS]). Briefly, liquid Mueller-Hinton-II medium containing increasing concentrations of AMPs is inoculated with a defined number of cells (approx. 10^5 CFUs/ml) in 96-well microtiter plates (polypropylene), whereas each plate also includes a positive growth control and a negative control (sterile control). The range of peptide concentrations analyzed was 0.125–64 μg/ml for the high purity peptides and 0.06–32 μg/ml for peptides of the variant library. After incubation, the MIC is determined by the lowest concentration showing no visible growth. All plates were incubated for 16–20 hours. The MIC of the reference antibiotics was determined by the use of Sensititre panels (Trek Diagnostic Systems Ltd, East Grinstead, UK).

[2] = test system: Salmonella enterica serovar Typhimurium LT2; test: microbe, parasite or virus in culture; format: cell-based; settings: LT2
Protocol: as §1, §2

[3] = test system: all the tested bacterial species including Gram-positive and Gram-negative bacteria
Protocol: as §2, with “The range of peptide concentrations analyzed was 0.125–64 μg/ml for the high purity peptides and 0.06–32 μg/ml for peptides of the variant library.” left out
To identify Cap18 variant peptides with changed species specificity, the antimicrobial screening data of Y. ruckeri, A. salmonicida, S. Typhimurium and L. lactis was compared.
In addition, three Cap18 derivatives harboring either a I13F, I13M or G26T substitution were ordered as positive controls. […] The antimicrobial activity of the highly pure peptides was determined by measuring the MIC value of each derivative against the four test strains Y. ruckeri, A. salmonicida, S.Typhimurium and L. lactis (Table 6). […] In addition to the additional screening strains, a wider range of relevant pathogens including Gram-positive and Gram-negative bacteria was analyzed for targeted antimicrobial activity.

[4] = test system: Pseudomonas aeruginosa ATCC27853; format: cell-based
Protocol: as §1, §2

[5] = test system: Lactococcus lactis IL1403; format: cell-based
Protocol: as §1, §2

[6] = test system: Enterococcus faecalis ATCC29212; format: cell-based
Protocol: as §1, §2

[7] = test system: Aeromonas salmonicida ATCC33658; test: microbe, parasite or virus in culture; format: cell-based; settings: ATCC33658
Protocol: as §1, §2

[8] = test system: Escherichia coli ATCC25922; format: cell-based
Protocol: as §1, §2

[9] = test system: Yersinia ruckeri 392/2003; test: microbe, parasite or virus in culture; format: cell-based
Protocol: as §1, §2

Sequence | MIC L. monocytogenes N22-2 [1] [µg/mL] | MIC S. Typhimurium LT2 [2] [µg/mL] | MIC against all the tested bacterial species [3] [µg/mL] | MIC P. aeruginosa ATCC27853 [4] [µg/mL] | MIC L. lactis IL1403 [5] [µg/mL] | MIC E. faecalis ATCC29212 [6] [µg/mL] | MIC A. salmonicida ATCC33658 [7] [µg/mL] | MIC E. coli ATCC25922 [8] [µg/mL] | MIC Y. ruckeri 392/2003 [9] [µg/mL] | MIC A. salmonicida [7] [µg/mL] | MIC Y. ruckeri [9] [µg/mL] | MIC S. Typhimurium [2] [µg/mL] | MIC L. lactis [5] [µg/mL]
GLRKRLRKFRNKIKEKDKKIGQKIQGLLPKLAPRTDY [Peptide 16] | ≥64 |  | ≥ 32 | ≥64 | ≥64 | ≥64 | ≥64 |  |  |  |  |  | 
GLRKRLRKFRNKIKEKPKKIGQKIQGLLPKLAPRTDY [Peptide 18] | ≥64 | ≥64 | ≥ 32 | ≥64 | ≥64 | ≥64 | ≥64 | ≥64 |  |  |  |  | 
GLRKRLRKFRNKIKEDLKKIGQKIQGLLPKLAPRTDY [Peptide 10] | 4 to 8 | 4 |  | 16 to 32 | 2 | 32 | 2 to 4 | 4 to 8 | 4 |  |  |  | 
GLRKRLRKFRNKIKEILKKIGQKIQGLLPKLAPRTDY [Peptide 12] | 8 to 16 | 16 |  | 16 | ≥64 | 16 | 8 to 16 | 16 | 16 | 4 | 4 | 4 | 
GLRKRLRKFRNKMKEKLKKIGQKIQGLLPKLAPRTDY [Peptide 6] | 4 | 8 |  | 8 to 16 | 2 | 8 to 16 | 4 | 8 to 16 | 4 |  |  |  | 
GLRKRPRKFRNKIKEKLKKIGQKIQGLLPKLAPRTDY [Peptide 1] | 32 | 8 |  | ≥64 | ≥64 | 32 | 8 to 16 | 8 | 64 | 8 |  | 4 | 8
GLRKRLRKFRNKHKEKLKKIGQKIQGLLPKLAPRTDY [Peptide 5] | 32 | 4 |  | 8 to 16 | ≥64 | ≥64 | 2 to 4 | 4 | 8 to 16 | 4 | 8 | 8 | 
GLRKRLRKFRNKQKEKLKKIGQKIQGLLPKLAPRTDY [Peptide 7] | 16 | 4 to 8 |  | 8 | ≥64 | 32 | 8 | 16 to 32 | 8 | 4 |  | 4 | 

Further lines, results first:

MIC L. monocytogenes N22-2 [1] [µg/mL] | MIC S. Typhimurium LT2 [2] [µg/mL] | MIC against all the tested bacterial species [3] [µg/mL] | MIC P. aeruginosa ATCC27853 [4] [µg/mL] | MIC L. lactis IL1403 [5] [µg/mL] | MIC E. faecalis ATCC29212 [6] [µg/mL] | MIC A. salmonicida ATCC33658 [7] [µg/mL] | MIC E. coli ATCC25922 [8] [µg/mL] | MIC Y. ruckeri 392/2003 [9] [µg/mL] | MIC A. salmonicida [7] [µg/mL] | MIC Y. ruckeri [9] [µg/mL] | MIC S. Typhimurium [2] [µg/mL] | MIC L. lactis [5] [µg/mL] | Sequence
32 | 32 | ≥ 32 |  |  |  |  |  |  |  |  |  |  | GLRKRLRKFRNKIKEKLKKIGQKNQGLLPKLAPRTDY [Peptide 28]
32 | 8 |  | 8 | 32 | ≥64 | 16 | ≥64 | 32 | 16 | 16 | 4 |  | GLRKRLRKFRNKIKEKLKKIGQKIQGPLPKLAPRTDY [Peptide 31]
4 | 4 to 8 |  | 8 | 2 | 8 | 4 | 4 to 8 | 2 to 4 |  |  |  |  | GLRKRLRKFRNKIKEKLKKIGQKIQTLLPKLAPRTDY [Peptide 30]
16 to 32 | 8 |  | 8 to 16 | 32 | ≥64 | 8 | 32 to 64 | 16 | 8 | 16 | 4 |  | GLRKRLRKFRNKIKEKLKKIGQKSQGLLPKLAPRTDY [Peptide 29]
16 to 32 | 8 to 16 |  | 8 to 16 | ≥64 | ≥64 | 16 | ≥64 | ≥64 | 4 | 16 | 4 |  | GLRKRLRKFRNKIKEKLKKNGQKIQGLLPKLAPRTDY [Peptide 22]
32 | 8 |  | 16 | 32 | ≥64 | 16 | ≥64 | 32 | 8 | 16 | 4 |  | GLRKRLRKFRNKIKEKLKKEGQKIQGLLPKLAPRTDY [Peptide 20]
16 | 16 |  | 32 | ≥64 | 32 | 16 to 32 | 16 | 16 | 4 | 4 | 8 |  | GLRKRLRKFRNKIKEKLKKICQKIQGLLPKLAPRTDY [Peptide 23]
16 to 32 | 16 |  | 8 | ≥64 | ≥64 | 16 to 32 | ≥64 | ≥64 | 4 |  | 4 |  | GLRKRLRKFRNKIKEKKKKIGQKIQGLLPKLAPRTDY [Peptide 17]
16 | 8 to 16 |  | 16 | ≥64 | 64 | 4 to 8 | 16 | 16 | 4 | 4 | 4 |  | GLRKRLRKFRNKIKEKLKKIGQKCQGLLPKLAPRTDY [Peptide 25]
